Structures can show the parent of a compound that is named as a salt. Residues, ends and D or L forms follow the SMILES beside them.
What was measured:
[1] = molecular target: T1, human peptide transporter PepT1 (Homo sapiens, UniProt P46059); assay: Electrophysiological transport analysis, hPEPT1 expressed in oocytes; format: cell-based
T1 construct: expressed in transfected cells
T1 sequence (P46059 1-708): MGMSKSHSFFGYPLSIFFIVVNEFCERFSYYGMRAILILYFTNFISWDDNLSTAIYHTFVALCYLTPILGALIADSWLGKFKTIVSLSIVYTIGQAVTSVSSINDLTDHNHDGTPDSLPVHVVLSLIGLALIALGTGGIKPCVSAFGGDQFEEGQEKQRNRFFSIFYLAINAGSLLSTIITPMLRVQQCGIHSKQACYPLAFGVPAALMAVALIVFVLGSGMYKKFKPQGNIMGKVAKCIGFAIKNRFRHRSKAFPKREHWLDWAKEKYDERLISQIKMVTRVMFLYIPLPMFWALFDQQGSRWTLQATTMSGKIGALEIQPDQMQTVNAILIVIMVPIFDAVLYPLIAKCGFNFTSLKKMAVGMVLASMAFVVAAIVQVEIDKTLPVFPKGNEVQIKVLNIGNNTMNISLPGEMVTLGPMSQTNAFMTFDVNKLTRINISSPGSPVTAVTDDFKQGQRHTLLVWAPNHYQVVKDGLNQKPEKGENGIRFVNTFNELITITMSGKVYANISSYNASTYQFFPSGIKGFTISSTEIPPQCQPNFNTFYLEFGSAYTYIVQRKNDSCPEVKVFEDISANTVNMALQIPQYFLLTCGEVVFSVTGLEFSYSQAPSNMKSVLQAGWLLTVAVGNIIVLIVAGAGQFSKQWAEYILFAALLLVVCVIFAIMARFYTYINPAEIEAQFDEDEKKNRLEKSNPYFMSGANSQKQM

[2] = molecular target: T1, human peptide transporter PepT1; assay: Affinity to PepT1 by displacement of radioactively labeled D-Phe-Ala; conditions: read-out: Binding constant, mM, to PepT1, relative to D-Phe-Ala
[3] = Blood glucose after oral glucose stimulation and oral administration (glucose tolerance); format: in vivo; conditions: Wistar rats; within 100 minutes of p.o. glucose stimulation; p.o. dose 2.5 um active substance/300 g of animal; control = 100
human blood-DP IV = molecular target: T2, human blood-DP IV (Homo sapiens, UniProt P27487); assay: Inhibition of DP IV in human whole blood by release of Ile-Thia from prodrugs; conditions: same concentration of prodrug, compared with Pro-Ile-Thia and Gly-Pro-Ile-Thia
T2 construct: from tissue; host or cells: human whole blood
T2 sequence (P27487 whole entry): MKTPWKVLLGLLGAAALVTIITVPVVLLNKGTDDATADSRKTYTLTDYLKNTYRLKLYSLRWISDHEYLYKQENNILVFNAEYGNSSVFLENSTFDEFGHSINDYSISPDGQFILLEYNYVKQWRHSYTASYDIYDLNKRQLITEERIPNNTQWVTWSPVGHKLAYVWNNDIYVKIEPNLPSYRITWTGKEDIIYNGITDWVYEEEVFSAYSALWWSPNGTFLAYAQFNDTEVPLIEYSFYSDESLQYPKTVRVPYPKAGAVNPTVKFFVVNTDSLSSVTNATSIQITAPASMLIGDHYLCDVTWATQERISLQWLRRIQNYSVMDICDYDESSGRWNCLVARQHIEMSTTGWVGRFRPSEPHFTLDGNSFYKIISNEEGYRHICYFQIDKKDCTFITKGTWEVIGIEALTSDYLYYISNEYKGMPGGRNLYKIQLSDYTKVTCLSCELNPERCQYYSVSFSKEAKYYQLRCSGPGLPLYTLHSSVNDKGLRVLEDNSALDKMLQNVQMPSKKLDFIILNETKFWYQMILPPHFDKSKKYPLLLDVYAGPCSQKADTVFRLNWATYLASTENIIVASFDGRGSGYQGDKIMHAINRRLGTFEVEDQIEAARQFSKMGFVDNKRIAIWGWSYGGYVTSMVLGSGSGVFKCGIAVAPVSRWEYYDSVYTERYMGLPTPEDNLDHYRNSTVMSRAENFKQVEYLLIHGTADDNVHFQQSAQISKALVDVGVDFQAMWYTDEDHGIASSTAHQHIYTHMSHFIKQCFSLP
Text: Release of the masked DP IV-inhibitor in the blood can be carried out, in the case of the examples selected, by DP IV itself (Pro-Pro-Ile-Thia=PPIThia, Gly-Pro-Ile-Thia=GPIThia) or by aminopeptidases (pGlu-Ile-Thia=pEIThia, Pro-Ile-Thia=PIThia) (FIG. 1).

Compound	Electrophys. transport analysis (hPEPT1 expr. in oocytes), flux % based on the Gly-Gln control (100%) [1] [%]	Ki [2] [mM]	further results
CC[C@H](C)[C@H](N)C(=O)N1CCC[C@H]1C(=O)N[C@H](C(=O)N1CCSC1)[C@@H](C)CC (as salt: HCl) [Ile-Pro-Ile-Thia]	–	–	melting point: 98 to 107 °C
NC(=O)CC(N)C(=O)N1CCCC1 (stereo not shown) [Asn-Pyr]	30	3.01	–
NC(=O)CC(N)C(=O)N1CCSC1 (stereo not shown) [Asn-Thia]	83	0.5	–
NC(Cc1c[nH]cn1)C(=O)N1CCCC1 (stereo not shown) [His-Pyr]	7	5.34	–
CC[C@H](C)[C@H](N)C(=O)N1CCC[C@H]1C(=O)N[C@H](C(=O)N1CCSC1)[C@@H](C)CC [Ile-Pro-Ile-Thia]	44	0.61	–
CCC(C)C(N)C(=O)N1CCCC1 (stereo not shown) [Ile-Pyr]	14	2.66	–
CCC(C)C(N)C(=O)N1CCSC1 (stereo not shown) [Ile-Thia, isoleucyl thiazolidide]	25	0.98	% glucose level [3]: 74.4%
NCCCCC(N)C(=O)NC(Cc1ccccc1)C(=O)N1CCCC1C(=O)O (stereo not drawn) [Lys-Phe-Pro] (H-Lys-Phe-Pro-OH; configuration not given here)	10	0.19	–
NCCCCC(N)C(=O)NC(Cc1ccccc1)C(=O)O (stereo not shown) [Lys-phe]	95	0.08	–
H-Gly-Pro-Ile-Thia/HC1	–	–	% glucose level [3]: 57.1%
H-Pro-Ile-Thia/HC1	–	–	% glucose level [3]: 56.1%
Pro-Pro-Ile-Thia	–	–	Release of the DP IV-inhibitor isoleucyl thiazolidide from the prodrug in the blood (time course of DP IV inhibition) (human blood-DP IV): more marked delay in the release of active substance
pGlu-Ile-Thia	–	–	Release of the DP IV-inhibitor isoleucyl thiazolidide from the prodrug in the blood (time course of DP IV inhibition) (human blood-DP IV): more marked delay in the release of active substance

— patent US7166579B2, “Prodrugs of DP IV-inhibitors” (Prosidion Limited, priority 1998, dated 2007)
